Measurements as given in US10738028B2, “Spiro three-membered ring, spiro five-membered ring peptide deformylase inhibitor and use thereof in antibacteria and anti-tumor” (priority 2016, dated 2020).

Key:
Format in all cases: cell-based
[1] = system: HCT-116 colorectal cancer cell line; experiment: CCK-8 proliferation inhibition; settings: Homo sapiens, HCT-116, 72 h, concentration of 30 μM; 72 hours; CCK-8; read-out: HCT116 inhibition rate/%
Summary of the method: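 Proliferation over 72 hours of compound treatment was measured with CCK-8 against a 1‰ DMSO control.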

[2] = system: methicillin-sensitive Staphylococcus aureus (MSSA); experiment: MIC, two-fold agar dilution (CLSI), clinical isolates
Summary of the method: (§1)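 CLSI two-fold agar dilution; MIC of test samples read per tested strain.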

[3] = system: Streptococcus pneoumoniae (SPN); experiment: as above
Summary of the method: as §1

[4] = system: methicillin-resistant Staphylococcus epidermidis (MRSE); experiment: as above
Summary of the method: as §1

[5] = system: methicillin-resistant Staphylococcus aureus (MRSA); experiment: as above
Summary of the method: as §1

[6] = system: Moraxella catarrhalis (BCA); experiment: as above
Summary of the method: as §1

[7] = system: methicillin-sensitive Staphylococcus epidermidis (MSSE); experiment: as above
Summary of the method: as §1

[8] = system: Enterococcus faecalis (EFA); experiment: as above
Summary of the method: as §1

[9] = system: Escherichia coli (including ESBLs, non-ESBLs); experiment: as above
Summary of the method: as §1

[10] = system: Enterococcus faecium (EFM); experiment: as above
Summary of the method: as §1

CCCC[C@H](CC(=O)NO)C(=O)N1CC2(CCCC2)C[C@H]1C(=O)Nc1cc(C)on1 [Example 80, (S)-2-((R)-2-(2-(hydroxyamino)-2-oxoethyl)hexanoyl)-N-(5-methylisoxazol-3-yl)-2-spiro[4.4]nonane-3-carboxamide]
2 µg/mL: Anti-bacterial activity (MIC) ([2]; strain MSSA 15-3) | Anti-bacterial activity (MIC) ([4]; strain MRSE 15-7) | Anti-bacterial activity (MIC) ([5]; strain MRSA 15-2) | Anti-bacterial activity (MIC) ([5]; strain MRSA 15-4) | Anti-bacterial activity (MIC) ([6]; strain BCA 14-5) | Anti-bacterial activity (MIC) ([10]; strain EFM 15-5)
4 µg/mL: Anti-bacterial activity (MIC) ([3]; strain SPN 16-4) | Anti-bacterial activity (MIC) ([6]; strain BCA 14-7) | Anti-bacterial activity (MIC) ([6]; strain BCA 14-10) | Anti-bacterial activity (MIC) ([10]; strain EFM 15-2) | Anti-bacterial activity (MIC) ([10]; strain EFM 15-4)
0.5 µg/mL: Anti-bacterial activity (MIC) ([2]; strain MSSA 15-5) | Anti-bacterial activity (MIC) ([4]; strain MRSE 15-2) | Anti-bacterial activity (MIC) ([4]; strain MRSE 15-3)
11%: inhibition at 30 µM [1]
16 µg/mL: Anti-bacterial activity (MIC) ([8]; strain EFA 15-1) | Anti-bacterial activity (MIC) ([9]; strain ECO+ 15-2)
1 µg/mL: Anti-bacterial activity (MIC) ([2]; strain MSSA 15-4) | Anti-bacterial activity (MIC) ([2]; strain MSSA 15-6) | Anti-bacterial activity (MIC) ([5]; strain MRSA 15-1) | Anti-bacterial activity (MIC) ([5]; strain MRSA 15-3) | Anti-bacterial activity (MIC) ([7]; strain MSSE 15-3)
8 µg/mL: Anti-bacterial activity (MIC) ([3]; strain SPN 16-2) | Anti-bacterial activity (MIC) ([6]; strain BCA 14-1) | Anti-bacterial activity (MIC) ([6]; strain BCA 14-4) | Anti-bacterial activity (MIC) ([6]; strain BCA 14-6) | Anti-bacterial activity (MIC) ([6]; strain BCA 14-8) | Anti-bacterial activity (MIC) ([8]; strain EFA 15-3) | Anti-bacterial activity (MIC) ([10]; strain EFM 15-1) | Anti-bacterial activity (MIC) ([10]; strain EFM 15-3) | Anti-bacterial activity (MIC) ([10]; strain EFM 15-6)
0.25 µg/mL: Anti-bacterial activity (MIC) ([4]; strain MRSE 15-1) | Anti-bacterial activity (MIC) ([7]; strain MSSE 15-4) | Anti-bacterial activity (MIC) ([7]; strain MSSE 15-5) | Anti-bacterial activity (MIC) ([7]; strain MSSE 15-6)
> 16 µg/mL: Anti-bacterial activity (MIC) ([8]; strain EFA 15-2) | Anti-bacterial activity (MIC) ([8]; strain EFA 15-4) | Anti-bacterial activity (MIC) ([8]; strain EFA 15-5) | Anti-bacterial activity (MIC) ([8]; strain EFA 15-6) | Anti-bacterial activity (MIC) ([8]; strain EFA 15-9) | Anti-bacterial activity (MIC) ([9]; strain ECO+ 15-1) | Anti-bacterial activity (MIC) ([9]; strain ECO+ 15-3) | Anti-bacterial activity (MIC) ([9]; strain ECO+ 15-4) | Anti-bacterial activity (MIC) ([9]; strain ECO− 15-1) | Anti-bacterial activity (MIC) ([9]; strain ECO− 15-2) | Anti-bacterial activity (MIC) ([9]; strain ECO− 15-3) | Anti-bacterial activity (MIC) ([9]; strain ECO− 15-4)
